Patent US20130281504A1, “Reduction of Microglia-Mediated Neurotoxicity by KCa3.1 Inhibition” (THE REGENTS OF THE UNIVERSITY OF CALIFORNIA, priority 2010, published 2013)

Key:
[1] = tested on: hippocampal slices; experiment: AβO-treated organotypic hippocampal slice cultures; assay type: cell-based, mouse
Experimental: Hippocampal slice cultures (400 μm-thick) were prepared from 7-day-old C57BL/6J mice as previously described (25) and cultured for 10 days in vitro before use. Neuronal damage in the slices was monitored by PI uptake following Bernardino et al (27). PI itself is not toxic to neurons (27). […] After 24 hrs, the slices were observed under a Nikon Eclipse E600 microscope and the red (630 nm) fluorescence emitted by PI taken up by damaged cells was photographed by a digital camera (SPOT RTke, SPOT Diagnostics, Sterling Heights, Mich.) with fixed exposure time.
For immunofluorescent staining of neurons, cultures were fixed in 4% paraformaldehyde and stained with anti-PSD95 (1:200, Cell Signaling), anti-MAP2 (1:500, Chemicon) and anti-acetylated α-tubulin (1:250, Zymed). For immunofluorescent staining of microglia, cultures or hippocampal slices were fixed in 4% paraformaldehyde and stained with anti-IBA1 (1:500, Wako Chemicals USA), anti-SRA (E-20, 1:200, Santa Cruz Biotechnology), and anti-CD11b (1:200, AbD Serotec USA, Raleigh, N.C.). The fixed cells or hippocampal slices were incubated with antibodies for overnight at 4° C. followed by secondary Alexa488 conjugated anti-mouse or Alexa568 conjugated anti-rabbit antibody (1:700, Molecular probes). Immunostained images were observed under a Nikon Eclipse E600 microscope and photographed by a digital camera (SPOT RTke, SPOT Diagnostics, Sterling Heights, Mich.).
(§1) To obtain lysates, cells or tissues were washed with ice-cold PBS and incubated with a buffer containing 50 mmol/L Tris-HCl (pH 7.4), 150 mmol/L NaCl, 2% SDS, proteinase inhibitor cocktail (Sigma), and phosphatase inhibitor cocktail (Sigma). Lysates were briefly sonncated and cleared by centrifugation at 50,000 rpm for 10 min. Equivalent amounts of protein were analyzed by Tris/HCL gel electrophoresis. Proteins were transferred to polyvinylidene difluoride membranes and probed with antibodies. Visualization was performed using enhanced chemiluminescence (ECL, Amersham Pharmacia, Piscataway, N.J.).
Conditioned medium collected from microglia cultures (1×10^5/0.75 cm^2) and hippocampal slices treated with Aβ for 24 hrs were analyzed by the Nitric Oxide Quantization Kit according to the protocol of the manufacturer (Active Motif, Carlsbad, Calif.). Data were normalized to the amount of total protein.

[2] = tested on: microglia; experiment: Assay for nitric oxide (nitrite) in microglia conditioned medium; assay type: cell-based, mouse; conditions: 24 hr
[3] = Pharmacokinetics and brain concentrations in rats (HPLC/MS); conditions: rat
Experimental: At various time points following the injection approximately 100-200 μl of blood were collected from a tail nick into EDTA blood sample collection tubes. […] Blood samples were taken by cardiac puncture under deep isoflurane anesthesia. The right atrium was then cut open and 20 mL of saline slowly injected into the left ventricle to flush the blood out of the circulation. The rats were then sacrificed and brains removed. Plasma was separated by centrifugation and samples stored at −80° C. pending analysis. Plasma and homogenized brain samples were purified using C18 solid phase extraction (SPE) cartridges. […] LC/MS analysis was performed with a Hewlett-Packard 1100 series HPLC stack equipped with a Merck KGaA RT 250-4 LiChrosorb RP-18 column interfaced to a Finnigan LCQ Classic MS. The mobile phase consisted of acetonitrile and water, both containing 0.2% formic acid.

[4] = tested on: p38MAPK; experiment: p38MAPK phosphorylation in microglia (Western blot); assay type: cell-based, mouse; conditions: doxycycline 20 μM, TRAM-34 1 μM, FIG. 2D
Experimental: Primary microglia cultures derived from newborn C57BL/6J mice were prepared from mixed glia cultures with the “shaking off” method described by Maezawa, I., et al.; (2006) FASEB J 20, 797-799. […] To obtain conditioned medium (CM) for treating neurons, microglia were first cultured in 24-well culture plates at a density of 1.3×10^5 cells/cm^2 for 24 hrs in DMEM with 10% fetal bovine serum (DMEM10). Cultures were washed extensively and changed to the Neurobasal medium with B27 supplement (NB/B27, Invitrogen) without serum and cultured for another 24 hrs. The NB/B27-based microglia CMs were collected, briefly centrifuged, and used immediately or frozen for future uses.
as §1
The following primary antibodies (dilutions) were used: anti-p38MAPK (1:1000, Cell Signaling Technology, Boston, Mass.), anti-phospho-p38MAPK (1:1000, Cell Signaling Technology), anti-Synaptophysin (1:1000, Abcam), anti-PSD95 (1:1000, cell signaling), anti-GRIP 1 (1:1000, UpState), anti-MAP2 (1:1000, Chemicon), anti-acetylated α-tubulin (1:2000, Zymed), and anti-β-actin (1:3000, Sigma). Secondary antibodies were HRP-conjugated anti-rabbit, anti-goat, or anti-mouse antibody (1:3000 Amersham).

[5] = Physiological parameters by I-STAT in venous blood of MCAO rats; assay type: in vivo, rat; conditions: After Reperfusion, ±SD

Clc1ccccc1C(c1ccccc1)(c1ccccc1)n1cccn1 [TRAM-34, 1-[(2-chlorophenyl)diphenylmethyl]-1H-pyrazole]
AβO-induced microglia activation in hippocampal slices ([1]; 20 nM AβO 24 hrs, co-treatment, FIG. 7A, 7C): substantially ameliorated | AβO-induced NO production from hippocampal slices ([1]; 20 μM doxycycline, 1 μM TRAM-34, FIG. 7B): prevented | AβO-enhanced PI uptake (neuronal damage) in hippocampal slices ([1]; 20 μM doxycycline, 1 μM TRAM-34, FIG. 7C): ameliorated | AβO-induced reduction of dendritic and post-synaptic proteins in hippocampal slices ([1]; co-treatment, FIG. 7D): substantially ameliorated | NO production from hippocampal slices, compound alone ([1]; without AβO): did not affect NO production | microglia NO production, compound alone ([2]; without AβO): did not affect NO production | AβO-induced increase of microglia NO production ([2]; 20 μM doxycycline, 1 μM TRAM-34, FIG. 2F): prevented | Kp ([3]; Wistar, in vivo): 1.2 | half-life ([3]; male, Wistar, in vivo, iv, 10 mg/kg, half-life, rat plasma, calculated from elimination part of i.v. plot): ~2 h | total plasma and brain levels, peak ([3]; i.p. 10 mg/kg, between 30 min and 1 hour): around 2.5 | plasma peaks ([3]; s.c. 120 mg/kg): 2.5 ± 1 µM | LPS-induced p38MAPK phosphorylation ([4]; LPS 100 ng/ml, 30 minutes): no significant difference | AβO-induced p38MAPK phosphorylation ([4]; microglia treated 30 minutes): no significant difference | BUN ([5]; TRAM-34 10 mg/kg): 12.8 ± 7.2 mg/dL | Glucose ([5]; TRAM-34 10 mg/kg): 179.2 ± 48.2 mg/dL | Na^+ ([5]; TRAM-34 10 mg/kg): 134.4 ± 2.3 mmol/L | BUN ([5]; TRAM-34 40 mg/kg): 22.2 ± 4.0 mg/dL | Glucose ([5]; TRAM-34 40 mg/kg): 171.8 ± 54.3 mg/dL | HCO3^− ([5]; TRAM-34 40 mg/kg): 32.5 ± 5.7 mmol/L | pH ([5]; TRAM-34 40 mg/kg): 7.4 ± 0.13
